Series [1] concerns the target T1, N-myristoyltransferase (NMT) (Mus musculus, UniProt O70310).
T1 construct: The supernatant comprises the whole of the NMT activity present in the L 1210 microsomes; endogenous in cells; host or cells: L 1210 murine leukemia cells; Triton 770-solubilized microsomes (105,000 g supernatant)
T1 sequence (O70310 1-496): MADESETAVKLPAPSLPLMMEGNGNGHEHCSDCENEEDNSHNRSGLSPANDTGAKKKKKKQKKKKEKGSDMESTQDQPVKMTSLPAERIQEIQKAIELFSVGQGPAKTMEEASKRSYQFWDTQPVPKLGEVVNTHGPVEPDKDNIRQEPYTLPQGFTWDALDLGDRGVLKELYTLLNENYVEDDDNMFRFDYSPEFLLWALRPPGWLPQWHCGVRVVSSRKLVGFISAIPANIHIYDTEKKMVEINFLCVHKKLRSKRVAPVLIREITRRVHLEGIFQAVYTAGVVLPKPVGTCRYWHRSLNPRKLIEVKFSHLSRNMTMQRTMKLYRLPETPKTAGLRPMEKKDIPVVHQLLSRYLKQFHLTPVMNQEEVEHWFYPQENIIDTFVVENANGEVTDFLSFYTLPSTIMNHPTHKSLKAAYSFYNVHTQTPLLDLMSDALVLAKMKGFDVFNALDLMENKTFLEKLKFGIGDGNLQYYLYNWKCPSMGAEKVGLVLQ
Briefly: Inhibition of N-myristoyltransferase (NMT) solubilized from L 1210 microsomes, in competition with peptide substrate G8R. In kind it is biochemical, murine (L 1210). The settings on record: for IC50: NMT from L 1210 microsomes, peptide substrate G8R, 10 min at 37° C. The protocol: Leukemic cells of murine origin (L 1210) are cultured in 500- to 1000-ml roller bottles in a medium comprising: RPMI 1640 medium (Gibco); 10% fetal calf serum; 50 units/ml of penicillin; 50 μM streptomycin; 2 mM glutamine; and 10 mM HEPES (Gibco). The cells grow with continuous agitation at 37° C. in an atmosphere of 5% CO2 /95% air. The cells are collected and washed. The final pellet, typically containing 2.5×10^11 cells is resuspended in a lysis buffer [50 mM Tris, pH 7.9; 1 mM DTT; 1 mM EDTA; and 250 mM sucrose]. The cells are lysed and homogenized. The microsomes (vesiculated endoplasmic reticulum) are collected by centrifugation at 105,000 g as a pellet.
NMT is a membrane enzyme. To solubilize this enzyme, this suspension is then diluted to 2/3 in a solubilization buffer [50 mM HEPES, pH 7.5, 1 mM EDTA, 1 mM DTT, 10% glycerol and 3% Triton 770] and maintained for 30 min at 4° C. with stirring. This suspension is then centrifuged again at 105,000 g for 75 min. The material insoluble in the detergent sediments as a pellet. The supernatant comprises the whole of the NMT activity present in the L 1210 microsomes.
The compounds are then tested on the supernatant in competition with the peptide substrate Gly-Asn-(Ala)4 -(Arg)2 ("G8R") according to the conditions which follow, as described by TOWLER et al. (PNAS, (1987), 84, 2708-2711). Myristoylcoenzyme A is synthesized enzymatically immediately before use by incubation of myristate with ATP, Coenzyme A (lithium salt) and Pseudomonas Acyl-Coa synthetase (20 min at 30° C.). The peptide substrate and the biological source as obtained above are then added. The mixture is incubated for 10 min at 37° C.; the reaction is then stopped with 110 μl of methanol and 10 μl of trichloroacetic acid. The medium is left at 4° C. for 10 min and then centrifuged at 10,000 g for 5 min. An aliquot (30 μl) of the final supernatant is injected into an HPLC system equipped with a μBondapak column (Waters) and developed with a linear gradient as described by Towler et al. (PNAS, (1987), 84, 2708-11). Detection of the acylated peptide is performed using a radioactive line detector (Berthold) by means of the addition of 5 ml/min of scintillation fluid (Zinsser). The acylated peptide is eluted at 85% acetonitrile-TFA/15% H20-TFA.
The compounds tested as inhibitors are suspended in a 0.1% solution of Triton 770 after a brief sonication in the cold state. 10 μl of the solution of inhibitor are added to the reaction medium. The experimental conditions are identical to those described above. The activity of the compound is evaluated on the basis of the decrease in control activity, incubated under the same conditions but in the presence of the solution of suspension.

The subject of a further series is L 1210 cells. The series is described as follows: Cytotoxicity, colorimetric test (ALLEY et al.), L 1210. The series is classed as cell-based, mouse. The conditions noted are these: for IC50: Mus musculus, L1210, concentration inhibiting 50% of cell growth, 9 concentrations. As to the method: (§1) The cytotoxicity of the compounds is assessed using the calorimetric test described by ALLEY et al. (Cancer Res., (1988) 48, 589-601). This automated test is routinely used on 2 cell lines: L 1210 (mouse leukemia) and HL 60 (human promyelocyte). On each of these lines, the cytotoxicity is assessed using 9 concentrations of the compounds. The IC50 is the concentration inhibiting 50% of cell growth.

The subject of the next series is HL 60 cells. Briefly: Cytotoxicity, colorimetric test (ALLEY et al.), HL 60. In kind it is cell-based, human. The settings on record: for IC50: Homo sapiens, HL-60, concentration inhibiting 50% of cell growth, 9 concentrations. The protocol: as §1
The mark [2] stands for this setting: compared with N-myristoylglycine.

Molecules are shown by their SMILES. “Also recorded” adds a separate entry of the source.

Consider 2 molecules from patent US5164414A, “Use of N-myristoyl-(S)-phenylalanine for the treatment of diseases involving myristoylation” (Adir Et Compagnie, priority 1990, dated 1992).

A word on the IC50: it is the concentration that gives 50% inhibition. High values mean a need for much substance, low ones inhibition by little substance.

As for `CCCCCCCCCCCCCC(=O)N[C@@H](Cc1ccccc1)C(=O)O` [N-myristoyl-(S)-phenylalanine], the IC50 is 0.2 mM in series [1], 29.5 µM in the series on L 1210 cells and 12.8 µM in the series with HL 60 cells. Further, in series [1] (enzyme extracted from L 1210 cells), the “inhibition of NMT activity (in words)” value is listed as “strongly inhibits its activity; also recorded: markedly greater inhibition of the activity of this enzyme than the use of compounds described in the prior art”. Moreover, the “activity greater than that measured for N-myristoylglycine” value in series [1] (ratio of IC50 versus N-myristoylglycine) was 15 -fold. Also, the “cytotoxicity on L 1210 cells (in words)” value with L 1210 cells (setting [2]) is given as “markedly greater than that due to N-myristoylglycine; also recorded: markedly greater cytotoxicity than N-myristoylglycine”. In addition, the “cytotoxicity on HL 60 cells (in words)” value in the series with HL 60 cells (setting [2]) was “markedly greater than that due to N-myristoylglycine; also recorded: markedly greater cytotoxicity than N-myristoylglycine”.
For `CCCCCCCCCCCCCC(=O)NCC(=O)O` [N-myristoylglycine, reference compound], the IC50 in series [1] worked out at 3 mM; in the series with L 1210 cells, 48.4 µM; in the series with HL 60 cells, 20.5 µM.
